In assay [1] the target is recombinant doubly mutated EGFR L858R, T790M kinase domain (mLT-EGFR) (Homo sapiens, UniProt P00533, L858R/T790M). Briefly: Kinetic analysis (AssayQuant). Type of assay: biochemical. The note with it: read-out: KI app. On the procedure:
Measurement of K I, K inact and K inact/K I was carried out by AssayQuant Technologies inc.

Assay [2] relates to EGFR phosphorylation (Tyr1068) in H1975 (L858R, T790M) cells. Briefly: HTRF cellular EGFR phosphorylation. It counts as cell-based. The conditions noted are these: Homo sapiens, NCI-H1975; HTRF, mean ± SD of 4 experiments; read-out: H1975 pEGFR IC50. The protocol:
Cells were plated at 20,000 cells per well in 96-well plates and placed at 37 °C with 5% CO2. Compounds were reconstituted in DMSO. Once adhered (after 24 h), cells were treated with compounds at a final concentration of 0.1% DMSO in media. Compounds were added to duplicate wells and incubated 37 °C for 3 h with 5% CO2. For A431 cells 0.5 h before the end of incubation; 100 ng/mL of EGF (Thermo Fisher, Cat. No. PHG0311) was added to all compound-treated cells as well as control. Compound and media were removed from the cells, and then 50 μL of HTRF lysis buffer was added (lysis buffer was diluted from 4× stock to 1× in deionized (DI) water, with 1% blocking agent also added). Cells were lysed on a plate shaker (2000 rpm) for 30 min at room temperature. pEGFR expression was assessed using the Human Phospho-EGFR (Tyr1068) cellular detection kit (Revvity, Cat. No. 64EG1PEH). Total EGFR expression was monitored using the Human Total EGFR cellular detection kit (Revvity, Cat. No. 64NG1PEH) as per the manufacturer’s instructions. […] Results were calculated as the ratio of pEGFR/total EGFR and then the percentage of 0 μM control.
For orientation: TR-FRET usually uses a lanthanide donor and a delayed reading to cut background.

The next assay deals with A431 (WT-EGFR) cells. Briefly: Adherent cell growth inhibition (CyQUANT). Type of assay: cell-based. The conditions noted are these: Homo sapiens, A-431; replenishment of compound every 72 h. The protocol: (§1) For adherent cell assays, each cell line was plated on day 0 in a 96-well plate at a density known to allow for exponential growth over 72 h. After 24 h, the compounds were diluted to the required concentrations in DMEM + 10% FBS media, maintaining a consistent final DMSO concentration of 0.1%. […] Growth inhibition was then assessed using a CyQUANT Direct Cell Proliferation assay (Invitrogen Cat No. C35011) following the manufacturer’s instructions. Fluorescence intensity (ex/em 480/520 nm) values were acquired using a PHERAstar microplate reader reader (BMG Labtech) and values were expressed as a percentage of the average DMSO treated value.

Assay [3] relates to H1975 (L858R, T790M) cells. Briefly: Adherent cell growth inhibition (CyQUANT). The conditions noted are these: Homo sapiens, NCI-H1975; replenishment of compound every 72 h; read-out: H1975 EGFR GI50. Type of assay: cell-based. The protocol: as §1
Another assay relates to TYK2. Briefly: Kinase selectivity panel. It counts as binding. The conditions noted are these: 1.0 µM.

Sequence of recombinant doubly mutated EGFR L858R, T790M kinase domain (mLT-EGFR) (P00533 712-979 T790M/L858R limits assumed): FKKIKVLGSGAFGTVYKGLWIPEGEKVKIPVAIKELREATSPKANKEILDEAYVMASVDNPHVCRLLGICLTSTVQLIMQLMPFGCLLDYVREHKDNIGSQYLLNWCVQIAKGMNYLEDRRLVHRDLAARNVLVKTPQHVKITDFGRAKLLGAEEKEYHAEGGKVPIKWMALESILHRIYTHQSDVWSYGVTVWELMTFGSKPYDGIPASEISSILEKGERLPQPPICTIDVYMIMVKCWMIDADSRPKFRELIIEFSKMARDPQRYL

For orientation: IC50 means the midpoint of a concentration-inhibition curve. As a reminder, the GI50 is the concentration that inhibits growth by half. Take `C#Cc1cc(=O)n(-c2ccccc2)c2nc(Nc3ccc(N(C)CCN(C)C)cc3)ncc12` [Compound 7, 2-((4-((2-(Dimethylamino)ethyl)(methyl)amino)phenyl)amino)-5-ethynyl-8-phenylpyrido[2,3-d]pyrimidin-7(8H)-one]: the Ki in assay [1] was determined as 22 ± 1.3 nM. In addition, the IC50 in assay [2] was determined as 140 ± 21 nM. The results for the GI50 (in the assay on A431 (WT-EGFR) cells; in assay [3]) were 2700 ± 1100 nM and 1100 ± 1100 nM, respectively. Besides, the “Mean (Percent Control)” value in the assay with TYK2 was found to be 58.5 Percent Control.

The values above are taken from PMC12794186, “Covalent Alkynylpyridopyrimidinones Targeting Cysteine 775 of the Epidermal Growth Factor Receptor Overcome Resistance to Current Therapies” (Journal of Medicinal Chemistry, 2025).
